Test results from patent publication US20230339977A1, “SUBSTITUTED HETEROARYL COMPOUND, AND COMPOSITION AND APPLICATION THEREOF” (SUNSHINE LAKE PHARMA CO., LTD., priority 2020, published 2023).
Read-outs that look alike come from different tables or passages of the source.

How the values were obtained:
CTLL-2 cells = test: Inhibitory effect on CTLL-2 cell proliferation; type: cell-based; details: alamar blue, read-out: IC50 (nM) CTLL-2 (h)
Experimental: CTLL-2, P-STAT3 and TF-1 cells were seeded in a 96-well culture plate at a density of 20,000/well with 90 µL per well, and the blank well was an equal amount of complete medium. 10 ul of different compound dilutions were added to each plate row BC, DE, and FG, and 5% DMSO medium with equal volume of the compound was added to positive wells and negative wells, and the final concentration of DMSO was 0.5%. After incubating in a 37° C. incubator for 20 h, alamar blue was added, the plate was incubated for 4 h, the fluorescence intensity of each well under the conditions of […], 580 nm wavelength was measured, and the IC50 value was calculated.

TF-1 cells = test: Inhibitory effect on TF-1 cell proliferation; type: cell-based; details: Homo sapiens, alamar blue, read-out: IC50 (nM) TF-1 (h)
Experimental: TF-1 cells were seeded in a 96-well culture plate at a density of 20,000/well with 80 µL per well, the blank well was an equal amount of complete medium, and 10 µL of the compound dilution solution was added to the 96-well plate B1-11, C1-11, E1-11, F1-11, positive and negative wells were added with 5% DMSO medium equal to the volume of the compound, and the final concentration of DMSO was 0.5%. After 30 min, GM-CSF with a final concentration of 2 ng/mL was added to rows B, C, and D (positive wells), and the remaining wells (rows E, F, and G) were added with the same volume of medium as cytokines (negative wells). After incubation for 44 h at 37° C. in 5% CO2, alamar blue was added, the plate was incubated for 4 h, the fluorescence intensity of each well under the conditions of […], 580 nm wavelength was measured, and the IC50 value was calculated.
CTLL-2, P-STAT3 and TF-1 cells were seeded in a 96-well culture plate at a density of 20,000/well with 90 µL per well, and the blank well was an equal amount of complete medium. 10 ul of different compound dilutions were added to each plate row BC, DE, and FG, and 5% DMSO medium with equal volume of the compound was added to positive wells and negative wells, and the final concentration of DMSO was 0.5%. […]

P-STAT3 = test: Effect of TYK2 inhibitor on P-STAT3 expression in PBMC induced by IFN-α (Table 3, P-STAT3 (h)); type: cell-based; details: Homo sapiens; P-STAT3 by ELISA, PBMC stimulated with IFN-α 5000 U/mL
Experimental: Whole blood was collected from healthy subjects, anticoagulated with heparin sodium, and PBMC (human peripheral blood mononuclear cells) were extracted. PBMC were seeded in 96-well culture plates at a density of 1*106/well. The initial concentration of the positive drug BMS986165 was 1000 nM, after diluting 10 times, the positive drug BMS986165 was diluted 8 concentrations by 3 times; the concentration of the other tested compounds was 333 nM. Positive wells and negative wells were added with the same volume of DMSO as the compound, and the final concentration of DMSO was 0.5%. After the compound was added, the cells were incubated at 37° C. for 1 h, and then stimulated by the addition of IFN-α at a final concentration of 5000 U/mL. An equal volume of medium was added to the negative wells and incubated for 15 min. The cells were centrifuged to remove the supernatant, and lysed, and the P-STAT3 was measured according to the instructions of the ELISA kit, the absorbance was read at 450 nm, and the IC50 value or inhibition rate was calculated.
CTLL-2, P-STAT3 and TF-1 cells were seeded in a 96-well culture plate at a density of 20,000/well with 90 µL per well, and the blank well was an equal amount of complete medium. […]

JAK1/TYK2 = test: Cell level activity test of JAK1/TYK2 (IFN-α induced STAT3 phosphorylation in PBMC); type: cell-based; details: Homo sapiens; P-STAT3 by ELISA in PBMC, compound 1 h, IFN-α 5000 U/mL 15 min; read-out: IC50 nM (JAK 1 /TYK2)
Experimental: IFN-α can induce the phosphorylation of STAT3 downstream of JAK1/TYK2 in PBMC, and by measuring the level of STAT3 phosphorylation, the activity of the compound on JAK1/TYK2 at the cell level can be reflected.
Whole blood was collected from healthy subjects, anticoagulated with heparin sodium, and PBMC (human peripheral blood mononuclear cells) were extracted. PBMC were seeded in a 96-well culture plates at a density of 1*106/well. Positive wells and negative wells were added with the same volume of DMSO as the compound, and the final concentration of DMSO was 0.5%. The compounds were incubated with the cells at 37° C. for 1 h, and then stimulated by adding IFN-α at a final concentration of 5000 U/mL, an equal volume of medium was added to the negative wells, and incubated for 15 min. The cells were centrifuged to remove the supernatant, then lysed, and P-STAT3 was measured according to the instructions of the ELISA kit, the absorbance was read at 450 nm, and the IC50 value or inhibition rate was calculated.

[1] = Stability in rat liver microsomes; type: in vitro ADME
Experimental: (§1) The stability of the compounds of the present invention in human and rat liver microsomes can be tested by the following two methods:
(§2) Human or rat liver microsomes were incubated in polypropylene tubes in duplicate wells. A typical incubation mixture included human or rat liver microsomes (0.5 mg protein/mL), target compound (5 µM), and a total volume of 200 µL of NADPH (1.0 mM) potassium phosphate buffer (PBS, 100 mM, pH 7.4), the compound was dissolved in DMSO and diluted with PBS, the final concentration of the DMSO solution was 0.05%. Human or rat liver microsomes were incubated at 37° C. in an air-connected water bath. After pre-incubation for 3 minutes, […] was added to start the reaction. The same volume of ice-cold acetonitrile was added to terminate the reaction at different time points (0, 5, 10, 15, 30 and 60 min). Samples were stored at -80° C. until LC/MS/MS analysis.
(§3) The linear concentration range of each target compound was determined, and then, the concentration of the target compounds in the human or rat liver microsomes incubation mixture was determined by LC/MS/MS method.
(§4) Parallel incubations were performed using denatured microsomes as a negative control and dextromethorphan (70 µM) as a positive control. Negative control was incubated at 37° C., the reaction was terminated at different time points (0, 15 and 60 minutes); positive control was incubated at 37° C., the reaction was terminated at different time points (0, 5, 10, 15, 30 and 60 minutes). Positive and negative control samples were used in each assay to ensure the integrity of the microsomal incubation system.
(§5) In addition, the stability data of the compounds of the present invention in human or rat liver microsomes can also be obtained from the following tests:
(§6) Human or rat liver microsomes were incubated in polypropylene tubes in duplicate wells. A typical incubation mixture included human or rat liver microsomes (final concentration: 0.5 mg protein/mL), target compound (final concentration: 1.5 µM) and a total volume of 30 µL of K-buffer solution (containing 1.0 mM EDTA, 100 mM, pH 7.4). Compounds were dissolved in DMSO and diluted with K-buffer solution, the final concentration of DMSO was 0.2%. […]
(§7) For each reaction, in vivo intrinsic hepatic clearance CLint is extrapolated by plotting the compound concentration (expressed as a percentage) in human or rat liver microsomal incubations as a percentage relative to time zero (ref.: Naritomi Y, Terashita S, Kimura S, Suzuki A, Kagayama A, Sugiyama Y. Prediction of human hepatic clearance from in vivo animal experiments and in vitro metabolic studies with liver microsomes from animals and humans. Drug Metabolism and Disposition 2001, 29: 1316-1324.).

[2] = Stability in human liver microsomes; type: in vitro ADME
Experimental: as §1, §2, §3, §4, §5, §6, §7

[3] = Pharmacokinetic evaluation in rats after intravenous injection and oral administration; type: in vivo; details: rat, plasma; for AUC(0-t): read-out: PK AUClast; for Cmax: read-out: PK Cmax; for half-life: read-out: PK T½ (converted)
Experimental: The analytical LC/MS/MS system includes an Agilent 1200 series vacuum degasser, a binary syringe pump, an orifice plate autosampler, a column oven, and an Agilent G6430 triple quadrupole mass spectrometer with an electrospray ionization (ESI) source.
Agilent XDB-C18, 2.1 × 30 mm, 3.5 µM column was used to analysis, 5 µL sample was injected. Analytical conditions: Mobile phases were 0.1% formic acid in water (A) and 0.1% formic acid in methanol (B). The flow rate was 0.4 mL/min.
In addition, Agilent 6330 series LC/MS/MS spectrometer was used for analysis, equipped with G1312A binary syringe pump, G1367A automatic sampler and G1314C UV detector; LC/MS/MS spectrometer used ESI radiation source. Optimum analysis was achieved using standards with appropriate cation model processing and MRM conversion for each analyte. A Capcell MP-C18 column, 100 × 4.6 mm I.D., 5 µM (Phenomenex, Torrance, California, USA) was used during the analysis. Mobile phase was 5 mM ammonium acetate, 0.1% methanol in water (A): 5 mM ammonium acetate, 0.1% methanol in acetonitrile (B) (70/30, v/v); flow rate was 0.6 mL/min; column temperature was maintained at room temperature; 20 µL of sample was injected.
The present invention evaluates the pharmacokinetic studies of the compounds of the present invention in mice, rats, dogs or monkeys. The compounds of the present invention were administered in the form of aqueous solution or 2% HPMC + 1% Tween-80 aqueous solution, 5% DMSO + 5% saline solution, 4% MC or capsule. For intravenous administration, animals were dosed at about 0.5, 0.6, 1 or 2 mg/kg. The oral doses (p.o.) were 5 or 10 mg/kg for rats and mice, and 10 mg/kg for dogs and monkeys. Bloods (0.3 mL) were taken at time points 0.25, 0.5, 1.0, 2.0, 3.0, 4.0, 6.0, 8.0, 12 and 24 h and centrifuged at 3,000 or 4,000 rpm for 10 min. Plasma solutions were collected and stored at -20° C. or -70° C. until LC/MS/MS analysis as described above. […] Table 2 is the experimental results of the pharmacokinetic characteristics of the compounds provided in the examples of the present invention in rats.

[4] = pH 7.4, in vivo intrinsic hepatic clearance extrapolated

SMILES	IC50 (CTLL-2 cells)	IC50 (TF-1 cells)	IC50 (P-STAT3)	IC50 (JAK1/TYK2)	CLint scaled [1, 4]	half-life ([1]; rat, pH 7.4, read-out: Rat T½)	half-life ([2]; human, pH 7.4, read-out: Human T½)	CLint scaled [2, 4]	AUC(0-t) ([3]; IV 1 mg/kg)	Cmax ([3]; IV 1 mg/kg)	half-life ([3]; IV 1 mg/kg)	AUC(0-t) ([3]; PO 5 mg/kg)	Cmax ([3]; PO 5 mg/kg)	half-life ([3]; PO 5 mg/kg)	bioavailability ([3]; oral bioavailability, PO 5 mg/kg)
CC(=O)Nc1cc2c(-c3ccc4c(n3)C3(CCOC3)OCC4)cn(C)c2cn1 (stereo not drawn) [Example 3, N-(1-Methyl-3-(4,5,5′,6′-Tetrahydro-2H-Spiro[Furan-3,8′-Pyrano[3,4-b]Pyridine]-2′-yl)-1H-Pyrrolo[2,3-c]Pyridin-5-yl)Acetamide]	> 10000 nM	5290 nM	21.4 nM	21.4 nM											
COc1cc(-c2cn(C)c3cnc(NC(C)=O)cc23)nc2c1COC21CCOC1 (stereo not drawn) [Example 1, N-(3-(4′-methoxy-4,5-dihydro-2H,5′H-spiro[furan-3,7′-furo[3,4-b]pyridin]-2′ -yl)-1-methyl-1H-pyrrolo[2,3-c]pyridin-5-yl)acetamide]					16.2 mL/min/kg	2.56 h	1.92 h	15.1 mL/min/kg	1650 ng·h/mL	1170 ng/mL	1.24 h	8810 ng·h/mL	2650 ng/mL	3.11 h	107%
